Entries after “also recorded” stand apart in the source; their conditions may differ.
Columns and labels:
ALDH2 = biological target: T1, ALDH2 (Homo sapiens, UniProt P05091); test: ALDH2 activity with 20 μM of the compound (Table 3); format: biochemical; conditions: 20 μM compound
T1 construct: His-tag (N); made in house; host or cells: E. coli BL21
T1 sequence (P05091 18-517): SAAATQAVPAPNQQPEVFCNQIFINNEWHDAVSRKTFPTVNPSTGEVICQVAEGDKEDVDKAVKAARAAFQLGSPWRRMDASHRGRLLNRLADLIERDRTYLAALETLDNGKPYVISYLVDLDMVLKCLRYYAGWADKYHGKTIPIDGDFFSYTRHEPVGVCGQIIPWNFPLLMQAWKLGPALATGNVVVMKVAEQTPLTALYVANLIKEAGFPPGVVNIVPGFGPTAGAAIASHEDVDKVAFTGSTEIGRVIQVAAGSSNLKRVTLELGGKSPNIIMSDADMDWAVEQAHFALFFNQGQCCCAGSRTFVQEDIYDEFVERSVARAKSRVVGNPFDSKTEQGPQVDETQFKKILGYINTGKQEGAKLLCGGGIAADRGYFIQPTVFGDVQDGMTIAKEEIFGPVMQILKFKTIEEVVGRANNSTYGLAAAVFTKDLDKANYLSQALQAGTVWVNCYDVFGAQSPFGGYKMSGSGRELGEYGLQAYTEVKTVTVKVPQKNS
In short: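 Compound was tested at 20 μM. ALDH2 oxidation of acetaldehyde with NAD+ cofactor was followed spectrophotometrically as NADH accumulation at 340 nm. Activity is expressed relative to the enzyme's baseline activity, taken as 100%.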

[1] = tested on: FANCA deficiency lymphocyte cell line (FANCA B-lymphocyte, GM13022); test: Proliferation of FANCA deficient lymphocytes under 4 HNE challenge (alamarBlue); format: cell-based
Procedure: FANCA deficiency lymphocyte cell line (Fanconi Anemia, Complementation Group A, FANCA B-lymphocyte, GM13022) was purchased from Coriell Cell Repositories (403 Haddon Ave, Camden, N.J. 08103).
Standard cell culture conditions were used in this experiment. The culture medium (CM) consisted of culture medium RPMI1640, 15% heat-inactivated FBS, 2 mM L-glutamine, 1% Pen/Strep. Cells were suspended in 10-20 ml CM in T25 tissue culture flask in an upright position and incubated in a 37° C., 5% CO2 incubator. Cells were counted daily and diluted with fresh CM to 3×10^5 cells/ml. Cells thawed and maintained in culture for 3-12 days were used in these studies.
Cell densities of FANCA lymphocytes were determined and cells were diluted in RPMI1640 medium containing 15% FBS, 2 mM L-glutamine, 1% Pen/Strep to desired cell density. 4000 cells in 50-75 μl were plated onto each well in total 48 wells in columns 3-10 and rows B-G. This plating arrangement provided 6-replicates per column for each experimental condition. Plate was then centrifuged at 500 rpm for 2 min to ensure better distribution of cells across the well. For background medium controls, equal volume (50-75 μl) of dilution medium were added to wells B2, C2, D2.
For minimizing cells/medium drying in sample wells, 150 μl of 1×DPBS was added to each well of the 45 wells surrounding the sample and control wells. Plate was then incubated in a 37° C. 5% CO2 incubator for at least 4 hours before addition of new reagent.
Compounds were diluted from 20 mM stocks in DMSO with RPMI1640 medium containing 15% FBS. RPMI1640 medium containing 15% FBS and corresponding volume of DMSO was used as controls.
4 HNE (64 mM in 100% ethanol) was diluted to desired concentrations with RPMI1640 base medium.
AlamarBlue was added to each well to final 9.1 or 10% of the total volume in each well. Plate was further incubated in the 37° C. 5% CO2 incubator. The alamarBlue assay is designed to measure quantitatively the proliferation of human and animal cell lines in culture versus incubation time period.
Plate was removed from the CO2 incubator at a pre-designated time and placed in the microplate reader. The fluorescence level in each well was monitored at Ex 554 nm and Em 590 nm. Afterwards the numeric numbers/units were used for data analyses.
Fluorescence units in all wells were acquired by the microplate reader at each time point. Data were then exported to scientist's computer equipped with SoftMax ProS software. The average of Background units (Blk, 3×) and the average of each sample set (6 replicates) were determined. For data collected at each time point (cell culture incubation period), the average of Blk units were subtracted from the average of each set of the Sample units. These “net fluorescence unit” data were then presented in a plot consisted of different culture incubation time periods (the x-axis) versus the corresponding net fluorescence units (y-axis).
The “net fluorescence units” of each sample set were also compared to those of the “control” at each time point. “Control fluorescence units” were considered to be 100% at all the time points. Each set of “net fluorescence units” were divided by the “Control fluorescent units” and multiplied by 100 to obtain corresponding percentages. These “relative percentage” data were then presented in a plot consisted of time points (the x-axis) versus the corresponding relative percentages to control of 100 (y-axis).
The inhibitory effect of 4 HNE on the proliferation of FANCA lymphocytes was examined. 4000 cells in 75 μl of RPMI1640 medium containing 15% FBS were plated onto each sample well in a 96-well poly D-lysine coated black/clear cell culture plate and the plate was incubated in a 37° C. 5% CO2 incubator for 7 hours.
Stock of 4 HNE at 64 mM was diluted with RPMI1640 medium to 10 μM, 20 μM, 30 μM, 40 μM, 60 μM, 80 μM, and 120 μM. […]

activity at 20 µM (ALDH2): > 250%
Compound: COc1ccc(CNC(=O)c2cc(-c3ncccc3CO)ccc2OCC2CC2)cc1F [AC6]
duration of cell-protective / cell growth promoting effect in FANCA cells [1]: at least 48 hours
relative cell proliferation versus control without AC compounds ([1]; 3.5 μM 4 HNE, 5 μM and 10 μM AC6, 10 μM AC32, 25 hours to 48 hours after 4 HNE treatment): higher levels of cell growth than “control”; also recorded: more efficient growth than control
cell proliferation rate ([1]; 10 μM AC6, 6 μM 4 HNE, between 25 and 48 hours after 4 HNE treatment): an increase in the cell proliferation rate
FANCA-deficiency lymphocyte cell growth versus 4 HNE only or 2 μM ALDH2 activators ([1]; 10 μM compound, pretreatment 2 hours before 6 μM 4 HNE challenge): higher levels of cell growth
FANCA-deficiency lymphocyte cell growth versus 4 HNE only ([1]; pretreatment 2 hours before 3.5 μM 4 HNE challenge, 2 to 10 μM compound): higher levels of cell growth; also recorded: higher efficacy than AC32
